One test has as its target T1, GPCR Ste2 (Saccharomyces cerevisiae, UniProt D6VTK4).
T1 construct: The addition of α-factor to a yeast cell (i.e. stimulation of the GPCR Ste2) raises [Ca^2+]i
T1 sequence (D6VTK4 1-431): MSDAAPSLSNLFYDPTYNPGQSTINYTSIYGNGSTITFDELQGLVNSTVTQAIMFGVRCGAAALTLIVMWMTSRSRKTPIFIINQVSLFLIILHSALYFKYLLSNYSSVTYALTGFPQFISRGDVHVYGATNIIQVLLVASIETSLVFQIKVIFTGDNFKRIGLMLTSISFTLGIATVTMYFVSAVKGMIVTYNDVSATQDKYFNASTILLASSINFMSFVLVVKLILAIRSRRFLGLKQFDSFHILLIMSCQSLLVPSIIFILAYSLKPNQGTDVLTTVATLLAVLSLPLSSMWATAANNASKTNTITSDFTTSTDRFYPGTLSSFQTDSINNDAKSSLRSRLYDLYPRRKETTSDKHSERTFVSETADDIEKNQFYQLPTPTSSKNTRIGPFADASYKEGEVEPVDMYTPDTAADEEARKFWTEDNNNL
The following applies: yeast cell, basal level approximately 100 nM; Iida et al., 1990; cited from earlier work.

The target of test [1] is T2, pheromone receptor Ste2 (Saccharomyces cerevisiae, UniProt D6VTK4).
T2 construct: As a yeast strain W303 MAT a, far::hisG, sst2::URA3^FOA, fus1::HIS3 was used; endogenous in cells; host or cells: yeast strain W303 MATa far::hisG sst2::URA3^FOA fus1::HIS3, transformed with reporter plasmid p78 4PRE-AEQ or p78 4PRE-LacZ
T2 sequence (D6VTK4 1-431): T1 sequence (D6VTK4 1-431)
In words: Pheromone pathway activity reporter assay, 4PRE-Aequorin reporter in yeast. In kind it is cell-based. Here is the method:
(§1) As a yeast strain W303 MAT a, far::hisG, sst2::URA3^FOA, fus1::HIS3 was used.
The cells are distributed and/or grown in a white 96-well plate, in a volume of 100 μl.
30 minutes before the measurement time point, 10 μl of a 5 μM coelenterazine (Molecular Probes) solution is distributed in each well (to obtain a 0.5 μM final concentration) to load the cells.
The plate is then incubated at 30° C. for the last 30 minutes.
Aequorin detection is made in a luminometer with injecting system (Luminoskan, Labsystems). For each well, immediately after injection of a 10 mM CaCl2 solution (1M CaCl2 diluted in lysis buffer Y-PER from Pierce), the luminescent signal is integrated for 15 seconds.
To avoid the intermediate step of loading, it is possible to introduce coelenterazine in the medium at the beginning of the assay: coelenterazine is added at a concentration of 0.5 μM.
(§2) In this assay, the expression of the two reporter genes depends on the activity of the pheromone mating pathway (Leberer et al., 1997). The minimal promoter 4PRE amplified from the FUS1 promoter region (Hagen et al., 1991) is activated only in case of a mating signal. This signal is elicited by stimulation of the pheromone receptor Ste2 by its ligand α-factor.
(§3) Three colonies of the yeast strain transformed with either p78 4PRE-AEQ or p78 4PRE-LacZ plasmids were grown in the appropiate medium (SC Glucose—Trp) to stationary phase and then diluted in the same medium (with 0.5 μM coelenterazin for the aequorin strain) containing 0; 10^−7; 10^−9; 10^−11M α-factor (Sigma). The plates were then shaken at 30° C., 700 r.p.m., for 3, 6 and 24 hours.
(§4) To allow the comparison between the two reporters and the different stimulation times, the measured detection numbers of Aequorin (FIG. 5) and β-Galactosidase (FIG. 6) are expressed as a ratio: stimulated/non stimulated.
(In general: A reporter such as luciferase makes a cellular process visible.)

Test [2] deals with T2, pheromone receptor Ste2. In words: Pheromone pathway activity reporter assay, 4PRE-LacZ (β-Galactosidase) reporter in yeast. Format: cell-based. Here is the method:
as §1
The cells are distributed and/or grown in a white 96-well plate, in a volume of 100 μl. At the measurement time point, each well receives 100 μl of a β-Galactosidase detection mix (Gal-screen, Tropix).
The plate is incubated for one hour at 28° C.
β-Galactosidase signal is read in a luminometer; the luminescent signal is integrated for 0.5 seconds.
as §2, §3, §4

Setting [3] is: 1 nM α-factor, 3 hours of stimulation.
Where [4] appears, read: 1 nM α-factor, 6 hours of stimulation.
The mark [5] stands for this setting: 100 nM α-factor, 3 hours of stimulation.
The mark [6] stands for this setting: 100 nM α-factor, 6 hours of stimulation.

In the case of α-factor, the “[Ca2+]i after addition of α-factor” value on GPCR Ste2 is “a few hundred”. Besides, the “Aequorin detection ratio stimulated/non stimulated” value on pheromone receptor Ste2 [1] (setting [3]) is 8; at pheromone receptor Ste2 [1] (setting [4]) it was 11; on pheromone receptor Ste2 [1] (setting [5]) it was 24; at pheromone receptor Ste2 [1] (setting [6]) it was 36. The “β-Galactosidase detection ratio stimulated/non stimulated” value is recorded as 4 on pheromone receptor Ste2 [2] (setting [3]), 7 at pheromone receptor Ste2 [2] (setting [4]), 7 on pheromone receptor Ste2 [2] (setting [5]) and 7 on pheromone receptor Ste2 [2] (setting [6]).

(Values after US20030157640A1, “Aequorin as a growth marker in yeast” (priority 2001, published 2003).)
